What all share (format): cell-based
The subject of assay [1] is A. baumannii ATCC BAA-1605. The assay is described as follows: MIC of carbapenems in presence and absence of 2-aminoimidazole compounds. The note with it: Acinetobacter baumannii, no 2-AI compound (None). The source says: (§1) The minimal inhibitory concentration (MIC) values of imipenem (I); meropenem (M) and doripenem (D) in the presence and absence of 2-aminoimidazole compounds are provided in Table 1. The concentration of each compound used in μM in the MIC assay is shown in parentheses.

For assay [2], the system named is K. pneumoniae ATCC BAA-1705. The description is as above. The note with it: Klebsiella pneumoniae, no 2-AI compound (None).
From the text: as §1

The test system of assay [3] is K. pneumoniae ATCC BAA-2146. The description is as above. The settings on record: Klebsiella pneumoniae, no 2-AI compound (None).
From the text: as §1

The test system of the next assay is A. baumannii AB5075. The description is as above. The settings on record: Acinetobacter baumannii, no 2-AI compound (None).
From the text: as §1

Another assay has as its system A. baumannii (Ab) AR# 52. The experiment in a line: MIC of meropenem in combination with compound, CDC carbapenem resistant strain. The settings on record: Acinetobacter baumannii, no compound (None), read-out: Minimum Inhibitory Concentration of Meropenem. As for the experimental part:
(§2) EXAMPLE 2: Six compounds were assessed for their activity in combination with meropenem against carbapenem resistant strains of A. baumannii (Ab), K. pneumoniae (Kp), and E. coli acquired from the Center for Disease Control (CDC). AR #—assigned AR-BANK number from the CDC.

The subject of the next assay is A. baumannii (Ab) AR# 70. Described as above. The settings on record: Acinetobacter baumannii, no compound (None), read-out: Minimum Inhibitory Concentration of Meropenem. As for the experimental part:
as §2

Another assay relates to A. baumannii (Ab) AR# 56. The description is as above. The note with it: Acinetobacter baumannii, no compound (None), read-out: Minimum Inhibitory Concentration of Meropenem. As for the experimental part: as §2
In the next assay the test system is E. coli AR# 48. Described as above. The settings on record: Escherichia coli, no compound (None), read-out: Minimum Inhibitory Concentration of Meropenem. As for the experimental part: as §2
Another assay relates to A. baumannii (Ab) AR# 88. The description is as above. The settings on record: Acinetobacter baumannii, no compound (None), read-out: Minimum Inhibitory Concentration of Meropenem. As for the experimental part: as §2
In the next assay the test system is A. baumannii (Ab) AR# 63. Described as above. The settings on record: Acinetobacter baumannii, no compound (None), read-out: Minimum Inhibitory Concentration of Meropenem. As for the experimental part: as §2
The subject of assay [4] is K. pneumoniae (Kp) AR# 98. The description is as above. The note with it: Klebsiella pneumoniae, no compound (None), read-out: Minimum Inhibitory Concentration of Meropenem. The procedure: as §2
The subject of a further assay is A. baumannii (Ab) AR# 83. The description is as above. The settings on record: Acinetobacter baumannii, no compound (None), read-out: Minimum Inhibitory Concentration of Meropenem. The procedure:
as §2

The next assay concerns A. baumannii (Ab) AR# 36. The assay is described as above. The settings on record: Acinetobacter baumannii, no compound (None), read-out: Minimum Inhibitory Concentration of Meropenem. As for the experimental part: as §2
A further assay deals with A. baumannii (Ab) AR# 45. The assay is described as above. The note with it: Acinetobacter baumannii, no compound (None), read-out: Minimum Inhibitory Concentration of Meropenem. As for the experimental part:
as §2

Assay [5] concerns K. pneumoniae (Kp) AR# 40. The assay is described as above. The note with it: Klebsiella pneumoniae, no compound (None), read-out: Minimum Inhibitory Concentration of Meropenem. As for the experimental part: as §2
A further assay relates to E. coli AR# 55. Described as above. The settings on record: Escherichia coli, no compound (None), read-out: Minimum Inhibitory Concentration of Meropenem. The procedure:
as §2

The test system of another assay is A. baumannii (Ab) AR# 35. The description is as above. The settings on record: Acinetobacter baumannii, no compound (None), read-out: Minimum Inhibitory Concentration of Meropenem. As for the experimental part: as §2
The test system of the next assay is A. baumannii (Ab) AR# 37. The assay is described as above. The note with it: Acinetobacter baumannii, no compound (None), read-out: Minimum Inhibitory Concentration of Meropenem. As for the experimental part:
as §2

Assay [6] deals with K. pneumoniae (Kp) AR# 68. Described as above. The note with it: Klebsiella pneumoniae, no compound (None), read-out: Minimum Inhibitory Concentration of Meropenem. The procedure:
as §2

A further assay has as its system A. baumannii (Ab) AR# 33. The description is as above. The note with it: Acinetobacter baumannii, no compound (None), read-out: Minimum Inhibitory Concentration of Meropenem. As for the experimental part:
as §2

For assay [7], the system named is K. pneumoniae (Kp) AR# 41. Described as above. The settings on record: Klebsiella pneumoniae, no compound (None), read-out: Minimum Inhibitory Concentration of Meropenem. As for the experimental part:
as §2

Read-outs that look alike come from different tables or passages of the source.

For the compound `C[C@@H](O)[C@H]1C(=O)N2C(C(=O)O)=C(S[C@@H]3CN[C@H](CNS(N)(=O)=O)C3)[C@H](C)[C@H]12` [D, doripenem], the MIC was found to be 32 µg/mL in assay [1] (read-out: MIC of doripenem (D)), 64 µg/mL in assay [2] (read-out: MIC of doripenem (D)), 256 µg/mL in assay [3] (read-out: MIC of doripenem (D)) and 32 µg/mL in the assay with A. baumannii AB5075 (read-out: MIC of doripenem (D)).

Turning to `C[C@@H](O)[C@H]1C(=O)N2C(C(=O)O)=C(SCCN=CN)C[C@H]12` [I, imipenem], the MIC in assay [1] (read-out: MIC of imipenem (I)) was 32 µg/mL; in assay [2] (read-out: MIC of imipenem (I)) it was 64 µg/mL; in assay [3] (read-out: MIC of imipenem (I)), 128 µg/mL; with A. baumannii AB5075 (read-out: MIC of imipenem (I)), 32 µg/mL.

Regarding `C[C@@H](O)[C@H]1C(=O)N2C(C(=O)O)=C(S[C@@H]3CN[C@H](C(=O)N(C)C)C3)[C@H](C)[C@H]12` [M, meropenem, reference compound], the MIC is 8 µg/mL in the assay with A. baumannii (Ab) AR# 52; 8 µg/mL in the assay with A. baumannii (Ab) AR# 70; 32 µg/mL in the assay on A. baumannii (Ab) AR# 56; 256 µg/mL with E. coli AR# 48; 512 µg/mL in the assay with A. baumannii (Ab) AR# 88; 128 µg/mL in the assay on A. baumannii (Ab) AR# 63. In addition, the MIC in assay [4] worked out at 128 µg/mL; in the assay with A. baumannii (Ab) AR# 83, 256 µg/mL; in the assay with A. baumannii (Ab) AR# 36 it was 128 µg/mL; in the assay with A. baumannii (Ab) AR# 45 it was 16 µg/mL; in assay [5], 1020 µg/mL; in the assay with E. coli AR# 55, 256 µg/mL. For the same compound, the MIC was found to be 128 µg/mL with A. baumannii (Ab) AR# 35; 256 µg/mL in the assay with A. baumannii (Ab) AR# 37; 512 µg/mL in assay [6]; 128 µg/mL with A. baumannii (Ab) AR# 33; 64 µg/mL in assay [7]; 32 µg/mL in [1] (read-out: MIC of meropenem). The MIC is 64 µg/mL in assay [2] (read-out: MIC of meropenem), 256 µg/mL in assay [3] (read-out: MIC of meropenem) and 32 µg/mL with A. baumannii AB5075 (read-out: MIC of meropenem).
